The first assay addresses T1, Dimer of Gag-Pol polyprotein [489-587] (Human immunodeficiency virus 1, UniProt P12497).
T1 construct: 489-587
Description: Protease Inhibition Assay. Particulars: pH 5.5; 37 °C. On the procedure:
(§1) Sensitivity of HIV-1 protease activity to protease inhibitors was determined by a peptide substrate cleavage assay. Cleavage products and substrate were separated by reversed-phase HPLC on a Perkin-Elmer 3 X 3CR C8 column.
Consider `CCC(CC)NC(=O)C[C@@H](C(=O)NC[C@@H](O)[C@H](Cc1ccccc1)NC(=O)[C@@H](NC(=O)OCc1ccccc1)C(C)O)C(C)(C)C` (stereo partly drawn) [benzyl N-[(1S,2S)-1-{[(2S,3R)-4-[(2R)-2-tert-butyl-N-(pentan-3-yl)butanediamido]-3-hydroxy-1-phenylbutan-2-yl]carbamoyl}-2-hydroxypropyl]carbamate], for which the IC50 (commonly the midpoint of a concentration-inhibition curve) came out at 8.2 nM.

The molecule `CC(C)[C@H](NC(=O)OCc1ccccc1)C(=O)N[C@@H](Cc1ccccc1)[C@H](O)CNC(=O)C1CCCCC1C(=O)NC(C)(C)C` (stereo partly drawn) [benzyl N-[(1S)-1-{[(2S,3R)-4-{[2-(tert-butylcarbamoyl)cyclohexyl]formamido}-3-hydroxy-1-phenylbutan-2-yl]carbamoyl}-2-methylpropyl]carbamate] had an IC50 of 140 nM.

`CCC(CC)NC(=O)C[C@@H](C(=O)NC[C@@H](O)[C@H](Cc1ccccc1)NC(=O)[C@@H](NC(=O)c1ccc2ccccc2n1)C(C)O)C(C)(C)C` (stereo partly drawn) [(2R)-2-tert-butyl-N-[(2R,3S)-2-hydroxy-3-[(2S,3R)-3-hydroxy-2-(quinolin-2-ylformamido)butanamido]-4-phenylbutyl]-N'-(pentan-3-yl)butanediamide] showed an IC50 of 3.6 nM.

`CCC(CC)NC(=O)C[C@@H](C(=O)NC[C@@H](O)[C@H](Cc1ccccc1)NC(=O)[C@@H](NC(=O)c1cnc2ccccc2n1)C(C)O)C(C)(C)C` (stereo partly drawn) [(2R)-2-tert-butyl-N-[(2R,3S)-2-hydroxy-3-[(2S,3R)-3-hydroxy-2-(quinoxalin-2-ylformamido)butanamido]-4-phenylbutyl]-N'-(pentan-3-yl)butanediamide]: the midpoint of inhibition, the IC50, lay at 3 nM.

The target in a further assay is T2, Dimer of Gag-Pol polyprotein [514-612] (Human immunodeficiency virus 2, UniProt P04584).
T2 construct: 514-612
T2 sequence (P04584 whole entry): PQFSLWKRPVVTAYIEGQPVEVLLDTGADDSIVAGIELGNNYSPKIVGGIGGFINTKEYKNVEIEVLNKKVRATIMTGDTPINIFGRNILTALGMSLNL
Kind of assay: Protease Inhibition Assay. The conditions noted are these: pH 5.5; 37 °C. On the procedure:
as §1
Take `CCC(CC)NC(=O)C[C@@H](C(=O)NC[C@@H](O)[C@H](Cc1ccccc1)NC(=O)[C@H](CC(N)=O)NC(=O)c1ccc2ccccc2n1)C(C)(C)C` [(2S)-N-[(2S,3R)-4-[(2R)-2-tert-butyl-N-(pentan-3-yl)butanediamido]-3-hydroxy-1-phenylbutan-2-yl]-2-(quinolin-2-ylformamido)butanediamide]: the IC50 was found to be 6.7 nM.

`CCC(CC)NC(=O)C[C@@H](C(=O)NC[C@@H](O)[C@H](Cc1ccccc1)NC(=O)[C@H](CC(N)=O)NC(=O)c1cnc2ccccc2n1)C(C)(C)C` [(2S)-N-[(2S,3R)-4-[(2R)-2-tert-butyl-N-(pentan-3-yl)butanediamido]-3-hydroxy-1-phenylbutan-2-yl]-2-(quinoxalin-2-ylformamido)butanediamide] came in with an IC50 of 6.3 nM.

`CCC(CC)NC(=O)C[C@@H](C(=O)NC[C@@H](O)[C@H](Cc1ccccc1)NC(=O)[C@@H](NC(=O)c1cnc2ccccc2n1)C(C)C)C(C)(C)C` [(2R)-2-tert-butyl-N-[(2R,3S)-2-hydroxy-3-[(2S)-3-methyl-2-(quinoxalin-2-ylformamido)butanamido]-4-phenylbutyl]-N'-(pentan-3-yl)butanediamide] registered an IC50 of 38 nM.

With `CCC(CC)NC(=O)C[C@@H](C(=O)NC[C@@H](O)[C@H](Cc1ccccc1)NC(=O)[C@@H](NC(=O)c1cnc2ccccc2n1)C(C)O)C(C)(C)C` (stereo partly drawn) [(2R)-2-tert-butyl-N-[(2R,3S)-2-hydroxy-3-[(2S,3R)-3-hydroxy-2-(quinoxalin-2-ylformamido)butanamido]-4-phenylbutyl]-N'-(pentan-3-yl)butanediamide], it took 135 nM to reach half-maximal inhibition (IC50).

The molecule `CCC(CC)NC(=O)C[C@@H](C(=O)NC[C@@H](O)[C@H](Cc1ccccc1)NC(=O)[C@@H](NC(=O)c1ccc2ccccc2n1)C(C)C)C(C)(C)C` [(2R)-2-tert-butyl-N-[(2R,3S)-2-hydroxy-3-[(2S)-3-methyl-2-(quinolin-2-ylformamido)butanamido]-4-phenylbutyl]-N'-(pentan-3-yl)butanediamide] had an IC50 of 42 nM.

(Values after BindingDB's records for doi:10.1021/jm9606608 (Boehringer Ingelheim (Canada), 1997).)
